# Test results: publication PMC12207366, “Protonated Glutamate and Aspartate Side Chains Can Recognize Phosphodiester Groups via Strong and Short Hydrogen Bonds in Biomacromolecular Complexes” (Angewandte Chemie (International Ed. in English), 2025)
# Experiments:
# PilF159-302 WT = target: T1, PilF159-302 WT (Thermus thermophilus, UniProt Q72H73); experiment: ITC c-di-GMP binding to wild-type GSPII-B domain; conditions: for -TΔS / Kd / ΔG / ΔH: 20 °C
# T1 sequence (Q72H73 159-302): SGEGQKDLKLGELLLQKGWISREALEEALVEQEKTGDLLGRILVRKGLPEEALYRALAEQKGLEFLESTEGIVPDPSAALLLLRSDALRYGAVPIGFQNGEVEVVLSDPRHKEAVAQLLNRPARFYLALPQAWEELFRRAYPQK
# Source text: (§1) To characterize c-di-GMP binding by PilF159-302, the Q190E and Q218E constructs via isothermal titration calorimetry (ITC) and X-ray crystallography unlabeled c-di-GMP was synthesized using a constitutively active mutant of a diguanylate cyclase from the thermophilic bacterium Thermogata maritima ^[4^4,4^5]. For NMR experiments ^13C,^15N labelled c-di-GMP was synthesized identically using ^13C,^15N labelled GTP as a substrate.
# (§2) c-di-GMP binding capabilities of PilF159-302, its mutant constructs PilF159-302 Q190E and PilF159-302 Q218E at varying pH-values were investigated by isothermal titration calorimetry (ITC) experiments in triplicate. All measurements were conducted at 20 °C using a MicroCal ITC200 (Malvern Panalytical, UK). For PilF159-302 Q190E and PilF159-302 Q218E ITC-measurements were conducted in a pH range from pH 8.5 – 4.0 with the buffering agent adjusted to the respective pH-range. For the pH-range 8.5 – 7.5 a sample buffer of 50 mM Tris, 200 mM NaCl and 1 mM β-Me was used. For pH values 7.0 – 6.0 a sample buffer of 50 mM BisTris, 200 mM NaCl, 1 mM β-Me and for pH 5.5 – 4.0 a sample buffer of 50 mM NaAc, 200 mM NaCl, 1 mM β-Me was used. For reference PilF159-302 was titrated with c-di-GMP at pH 8.5 in 50 mM Tris pH 8.5, 200 mM NaCl, 1 mM β-Me and at pH 4.0 in 50 mM NaAc pH 4.0, 200 mM NaCl, 1 mM β-Me. In order to test whether the buffer reagents have an influence on the measured thermodynamic parameters, cross measurements were performed in the region of the pH transitions. To this end, additional measurements with BisTris at pH 7.5 and 5.5, with Tris at pH 7.0 and with NaAc at pH 6.0 were carried out as singlets. The buffer agents had no influence on measured KD-values and resulted only in small changes of the ΔH values. All protein samples were dialyzed two times against 500 ml of the respective sample buffer (1 L in total) at 4 °C for at least 16 hours per step using a dialysis chamber with a nominal 3.5 kDa molecular weight cutoff (ZelluTrans, ROTH). To prepare the ITC-measurements protein and c-di-GMP sample were adjusted to the respective concentration using the dialysis buffer. Protein and c-di-GMP concentration ranged from 20 to 50 µM (protein) and 200 to 500 µM (c-di-GMP) depending on the c-di-GMP binding capabilities at the different pH-values to optimize precision of the measurements. For pH 8.5 – 7.0 a protein concentration of 50 µM with 500 µM c-di-GMP was used. For pH 6.5 – 5.0 a protein concentration of 30 µM with 300 µM c-di-GMP and for pH 4.5 – 4.0 a protein concentration of 20 µM with 200 µM c-di-GMP was used. The following protocol was utilized for each measurement. To 270 µl protein a total of 40 µl c-di-GMP was titrated in 21 injections with a duration of 4 s in intervals of 180 s with a stirring speed of 750 rpm. The first injection of 0.2 µl c-di-GMP with a duration of 0.4 s was carried out after an initial delay of 120 s, which was followed by 20 injections of 2 µl each with a duration of 4 s. During the measurement, the feedback mode was set to high and the reference power to 11 µcal s^-1. All thermograms were processed using Origin 7.0 (OriginLab) using the one-site binding model.
# PilF159-302 Q190E = target: T2, PilF159-302 Q190E (Thermus thermophilus, UniProt Q72H73, Q190E); experiment: ITC c-di-GMP binding to Q190E mutant, pH series; conditions: 20 °C
# T2 sequence (Q72H73 159-302 Q190E): T1 sequence (Q72H73 159-302)
# Source text: as §1, §2
# [1] = Bis-Tris, pH 5.5, buffer cross measurement, singlet
# [2] = Bis-Tris, pH 7.5, buffer cross measurement, singlet
# [3] = Na-Acetate, pH 6.0, buffer cross measurement, singlet
# [4] = Tris, pH 7.0, buffer cross measurement, singlet
smiles,measurement,setting,value
Nc1nc2c(ncn2C2OC3COP(=O)(O)OC4C(COP(=O)(O)OC3C2O)OC(n2cnc3c(=O)[nH]c(N)nc32)C4O)c(=O)[nH]1 (stereo not drawn) [c-di-GMP],"c-di-GMP binding affinity, pH dependence","PilF159-302 WT; ITC, pH 4.0 versus pH 8.5",similar
same,-TΔS,"PilF159-302 WT; Na-Acetate, pH 4.0",-4.81 kcal/mol
same,Kd,"PilF159-302 WT; Na-Acetate, pH 4.0",4 nM
same,ΔG,"PilF159-302 WT; Na-Acetate, pH 4.0",-11.26 kcal/mol
same,ΔH,"PilF159-302 WT; Na-Acetate, pH 4.0",-6.45 kcal/mol
same,-TΔS,"PilF159-302 WT; Tris, pH 8.5",0.63 kcal/mol
same,Kd,"PilF159-302 WT; Tris, pH 8.5",9 nM
same,ΔG,"PilF159-302 WT; Tris, pH 8.5",-10.78 kcal/mol
same,ΔH,"PilF159-302 WT; Tris, pH 8.5",-11.41 kcal/mol
same,-TΔS,PilF159-302 Q190E; [1],-2.53 kcal/mol
same,Kd,PilF159-302 Q190E; [1],71 nM
same,ΔG,PilF159-302 Q190E; [1],-9.58 kcal/mol
same,ΔH,PilF159-302 Q190E; [1],-7.06 kcal/mol
same,-TΔS,"PilF159-302 Q190E; Bis-Tris, pH 6.0",-3.45 ± 0.05 kcal/mol
same,Kd,"PilF159-302 Q190E; Bis-Tris, pH 6.0",67 ± 3 nM
same,N,"PilF159-302 Q190E; Bis-Tris, pH 6.0",0.96 ± 0.01
same,ΔG,"PilF159-302 Q190E; Bis-Tris, pH 6.0",-9.40 ± 0.02 kcal/mol
same,ΔH,"PilF159-302 Q190E; Bis-Tris, pH 6.0",-5.97 ± 0.05 kcal/mol
same,-TΔS,"PilF159-302 Q190E; Bis-Tris, pH 6.5",-3.55 ± 0.20 kcal/mol
same,Kd,"PilF159-302 Q190E; Bis-Tris, pH 6.5",160 ± 34 nM
same,N,"PilF159-302 Q190E; Bis-Tris, pH 6.5",0.72 ± 0.12
same,ΔG,"PilF159-302 Q190E; Bis-Tris, pH 6.5",-9.12 ± 0.13 kcal/mol
same,ΔH,"PilF159-302 Q190E; Bis-Tris, pH 6.5",-5.58 ± 0.09 kcal/mol
same,-TΔS,"PilF159-302 Q190E; Bis-Tris, pH 7.0",-4.14 ± 0.23 kcal/mol
same,Kd,"PilF159-302 Q190E; Bis-Tris, pH 7.0",236 ± 8 nM
same,N,"PilF159-302 Q190E; Bis-Tris, pH 7.0",0.98 ± 0.01
same,ΔG,"PilF159-302 Q190E; Bis-Tris, pH 7.0",-8.88 ± 0.02 kcal/mol
same,ΔH,"PilF159-302 Q190E; Bis-Tris, pH 7.0",-4.76 ± 0.21 kcal/mol
same,-TΔS,PilF159-302 Q190E; [2],-2.51 kcal/mol
same,Kd,PilF159-302 Q190E; [2],505 nM
same,ΔG,PilF159-302 Q190E; [2],-8.44 kcal/mol
same,ΔH,PilF159-302 Q190E; [2],-5.93 kcal/mol
same,-TΔS,"PilF159-302 Q190E; Na-Acetate, pH 4.0",-2.59 ± 0.37 kcal/mol
same,Kd,"PilF159-302 Q190E; Na-Acetate, pH 4.0",40 ± 13 nM
same,N,"PilF159-302 Q190E; Na-Acetate, pH 4.0",0.98 ± 0.01
same,ΔG,"PilF159-302 Q190E; Na-Acetate, pH 4.0",-9.96 ± 0.22 kcal/mol
same,ΔH,"PilF159-302 Q190E; Na-Acetate, pH 4.0",-7.37 ± 0.17 kcal/mol
same,-TΔS,"PilF159-302 Q190E; Na-Acetate, pH 4.5",-2.27 ± 0.87 kcal/mol
same,Kd,"PilF159-302 Q190E; Na-Acetate, pH 4.5",42 ± 13 nM
same,N,"PilF159-302 Q190E; Na-Acetate, pH 4.5",0.95 ± 0.13
same,ΔG,"PilF159-302 Q190E; Na-Acetate, pH 4.5",-9.92 ± 0.18 kcal/mol
same,ΔH,"PilF159-302 Q190E; Na-Acetate, pH 4.5",-7.65 ± 0.98 kcal/mol
same,-TΔS,"PilF159-302 Q190E; Na-Acetate, pH 5.0",-0.27 ± 0.51 kcal/mol
same,Kd,"PilF159-302 Q190E; Na-Acetate, pH 5.0",78 ± 11 nM
same,N,"PilF159-302 Q190E; Na-Acetate, pH 5.0",0.91 ± 0.04
same,ΔG,"PilF159-302 Q190E; Na-Acetate, pH 5.0",-9.54 ± 0.09 kcal/mol
same,ΔH,"PilF159-302 Q190E; Na-Acetate, pH 5.0",-9.28 ± 0.43 kcal/mol
same,-TΔS,"PilF159-302 Q190E; Na-Acetate, pH 5.5",-1.11 ± 0.16 kcal/mol
same,Kd,"PilF159-302 Q190E; Na-Acetate, pH 5.5",74 ± 8 nM
same,N,"PilF159-302 Q190E; Na-Acetate, pH 5.5",1.02 ± 0.02
same,ΔG,"PilF159-302 Q190E; Na-Acetate, pH 5.5",-9.56 ± 0.07 kcal/mol
same,ΔH,"PilF159-302 Q190E; Na-Acetate, pH 5.5",-8.54 ± 0.04 kcal/mol
same,-TΔS,PilF159-302 Q190E; [3],-0.49 kcal/mol
same,Kd,PilF159-302 Q190E; [3],96 nM
same,ΔG,PilF159-302 Q190E; [3],-9.41 kcal/mol
same,ΔH,PilF159-302 Q190E; [3],-8.93 kcal/mol
same,-TΔS,PilF159-302 Q190E; [4],-6.09 kcal/mol
same,Kd,PilF159-302 Q190E; [4],223 nM
same,ΔG,PilF159-302 Q190E; [4],-8.92 kcal/mol
same,ΔH,PilF159-302 Q190E; [4],-2.81 kcal/mol
same,-TΔS,"PilF159-302 Q190E; Tris, pH 7.5",-4.63 ± 0.19 kcal/mol
same,Kd,"PilF159-302 Q190E; Tris, pH 7.5",511 ± 13 nM
same,N,"PilF159-302 Q190E; Tris, pH 7.5",0.95 ± 0.09
